Data published in ChEMBL document CHEMBL1255257, “Assessment of serum (1->3)-beta-D-glucan concentration as a measure of disease burden in a murine model of invasive pulmonary aspergillosis” (2008).
The source made the active and inactive calls. The calls are words filed in the database; no cut-off is given here.

Key:
Aspergillus fumigatus [1] = test: Antifungal activity against Aspergillus fumigatus isolate CEA 10 infected in ICR mouse assessed as pulmonary fungal burden at 40 mg/kg, po QD; type: functional
Aspergillus fumigatus [2] = test: Antifungal activity against Aspergillus fumigatus isolate CEA 10 infected in ICR mouse assessed survival of the mouse at 40 mg/kg, po QD; type: functional, organism-based; set-up: dose 40 mg/kg
Aspergillus fumigatus [3] = test: Antifungal activity against Aspergillus fumigatus isolate AF 293 infected in ICR mouse assessed survival of the mouse at 40 mg/kg, po QD; type: functional, organism-based; set-up: dose 40 mg/kg
Aspergillus fumigatus [4] = test: Antifungal activity against Aspergillus fumigatus isolate AF 293 infected in ICR mouse assessed as pulmonary fungal burden at 40 mg/kg, po QD; type: functional
Aspergillus fumigatus [5] = test: Antifungal activity against Aspergillus fumigatus isolate CEA 10 infected in ICR mouse assessed as decrease in (1-3)-beta-D-glucan concentration in serum at 40 mg/kg, po QD (RVb= 707 pg/ml); type: functional, organism-based; set-up: dose 40 mg/kg
Aspergillus fumigatus [6] = test: Antifungal activity against Aspergillus fumigatus isolate AF 293 infected in ICR mouse assessed as decrease in (1-3)-beta-D-glucan concentration in serum at 40 mg/kg, po QD (RVb= 758 pg/ml); type: functional, organism-based; set-up: dose 40 mg/kg

Structure (SMILES): CC[C@@H]([C@H](C)O)n1ncn(-c2ccc(N3CCN(c4ccc(OC[C@@H]5CO[C@@](Cn6cncn6)(c6ccc(F)cc6F)C5)cc4)CC3)cc2)c1=O [POSACONAZOLE]
- fold change (FC) (Aspergillus fumigatus [1]): 7.3
- Activity (Aspergillus fumigatus [2]): Active
- Activity (Aspergillus fumigatus [3]): Active
- fold change (FC) (Aspergillus fumigatus [4]): 3.6
- Activity (Aspergillus fumigatus [5]): Active
- Activity (Aspergillus fumigatus [6]): Active
